Measurements published in the supplement of paper PMC10307832.

Tests used:
Assay in all cases: relative viability (nuclei count vs DMSO), 5 days (fraction); higher = more cells survive
[1] = compound: CCC1=CN=CN=C1N2CCN(CC2)CC3=NC4=C(N3)C=C(C=C4)C(F)(F)F + CC(=O)c1c(C)c2cnc(Nc3ccc(N4CCNCC4)cn3)nc2n(C2CCCC2)c1=O [Palbociclib] (partner 0.5 µM)
How it was run: (§1)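 For relative viability, nuclei counts in treated wells were divided by those in vehicle wells. Lung cancer cell lines had been pin-tool dosed in 1536-well plates the day after seeding and cultured for 5 days, then fixed and stained in one step (final 0.05% Triton X-100, 1% formaldehyde, 1 ug/ml Hoechst) and imaged at 4×. Doses were one drug alone or a fixed anchor-drug dose plus five library-drug doses (not always all listed) in √10 steps, and values are duplicate-plate medians.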

[2] = compound: CCn1c(-c2nonc2N)nc2cnc(Oc3cccc(NC(=O)c4ccc(OCCN5CCOCC5)cc4)c3)cc21 + N=C(N)NC(=N)NCCc1ccccc1 [Phenformin] (partner 250 µM)
How it was run: as §1

[3] = compound: CCn1c(-c2nonc2N)nc2cnc(Oc3cccc(NC(=O)c4ccc(OCCN5CCOCC5)cc4)c3)cc21 + O=C(c1cc(Cc2n[nH]c(=O)c3ccccc23)ccc1F)N1CCN(C(=O)C2CC2)CC1 [Olaparib] (partner 8 µM)
How it was run: as §1

Mirin + Phenformin = compound: N=C1NC(=O)/C(=C/c2ccc(O)cc2)S1 [Mirin] + N=C(N)NC(=N)NCCc1ccccc1 [Phenformin] (partner 250 µM)
How it was run: as §1

| Cell Line | relative viability ([1]; first compound 0.4 µM) | relative viability ([1]; first compound 1.265 µM) | relative viability ([1]; first compound 4 µM) | relative viability ([2]; first compound 0.04 µM) | relative viability ([2]; first compound 0.1265 µM) | relative viability ([2]; first compound 0.4 µM) | relative viability ([2]; first compound 1.265 µM) | relative viability ([2]; first compound 4 µM) | relative viability ([3]; first compound 0.04 µM) | relative viability ([3]; first compound 0.1265 µM) | relative viability ([3]; first compound 0.4 µM) | relative viability ([3]; first compound 1.265 µM) | relative viability ([3]; first compound 4 µM) | relative viability (Mirin + Phenformin; first compound 0.25 µM) | relative viability (Mirin + Phenformin; first compound 0.7906 µM) | relative viability (Mirin + Phenformin; first compound 2.5 µM) | relative viability (Mirin + Phenformin; first compound 7.906 µM) | relative viability (Mirin + Phenformin; first compound 25 µM) | relative viability ([1]; first compound 0.04 µM) | relative viability ([1]; first compound 0.1265 µM) |
| --- | --- | --- | --- | --- | --- | --- | --- | --- | --- | --- | --- | --- | --- | --- | --- | --- | --- | --- | --- | --- |
| ABC-1 | 0.543 | 0.628 | 0.547 | 0.23 | 0.266 | 0.209 | 0.277 | 0.217 | 0.632 | 0.589 | 0.74 | 0.386 | 0.458 | 0.263 | 0.21 | 0.269 | 0.257 | 0.206 | – | – |
| IA-LM | – | – | – | – | – | – | – | – | 0.967 | 0.834 | 0.791 | 0.796 | 0.765 | – | – | – | – | – | – | – |
| NCI-H441 | 0.204 | 0.17 | 0.257 | 0.89 | 0.96 | – | 0.654 | 0.623 | 0.74 | 0.589 | 0.454 | 0.439 | 0.394 | 0.763 | 0.876 | 0.782 | 0.718 | 0.628 | 0.205 | 0.204 |
| NCI-H1792 | 0.687 | 0.542 | 0.611 | 0.333 | 0.177 | 0.0802 | 0.145 | 0.225 | 0.449 | 0.345 | 0.338 | 0.244 | 0.37 | 0.351 | 0.369 | 0.306 | 0.245 | 0.264 | 0.68 | 0.616 |
| LXF-289 | 0.615 | 0.635 | 0.559 | 0.554 | 0.526 | 0.361 | 0.334 | 0.341 | 1.07 | 1.22 | 1.01 | 1.12 | 0.984 | 0.543 | 0.589 | 0.546 | 0.511 | 0.548 | 0.624 | 0.583 |
| HCC-827 | 0.498 | 0.431 | 0.468 | 0.489 | 0.484 | 0.439 | 0.414 | 0.399 | 0.686 | 0.693 | 0.698 | 0.501 | 0.509 | 0.415 | 0.362 | 0.401 | 0.403 | 0.428 | 0.497 | 0.53 |
| EMC-BAC-2 | 0.533 | 0.463 | 0.554 | 0.502 | 0.387 | 0.259 | 0.176 | 0.178 | 0.474 | 0.42 | 0.38 | 0.27 | 0.292 | 0.57 | 0.57 | 0.559 | 0.401 | 0.49 | 0.483 | 0.532 |
| NCI-H596 | – | – | – | 0.898 | 0.77 | 0.598 | 0.531 | 0.661 | 0.622 | 0.666 | 0.739 | 0.739 | 0.585 | 0.709 | 0.713 | 0.704 | 0.787 | 0.736 | – | – |
| NCI-H1755 | 0.45 | 0.437 | 0.49 | 0.565 | 0.508 | 0.301 | 0.304 | 0.332 | 0.89 | 0.891 | 0.864 | 0.851 | 0.833 | 0.617 | 0.595 | 0.683 | 0.63 | 0.678 | 0.475 | 0.478 |
